Source: US20250296939A1, “BENZOTHIOPHENE COMPOUND” (Kyoto Pharmaceutical Industries, Ltd., priority 2022, published 2025)

How the values were obtained:
[1] = tested on: NQO1 activity in Hepa1c1c7 cells; assay: NAD(P)H: quinone oxidoreductase-1 (NQO1) enzyme induction assay (in vitro); format: cell-based, mouse; settings: Mus musculus, Hepa-1c1c7, NQO1 activity upon addition of 400 nM of test compound, about 48 hr, ratio from the base without the compound
Summary of the method: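 Mouse Hepa1c1c7 hepatoma cells were treated with 400 nM compound for about 48 h, then lysed with digitonin/EDTA. NQO1 activity was measured as menadione-mediated MTT reduction with a G6P/G6PDH NADPH-regenerating system, stopped with dicoumarol, and read at A610. Values are the activity ratio versus untreated base wells.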

[2] = target: GST-fused human Keap1 (amino acid residues: 325-642) protein (Homo sapiens (Human), UniProt Q14145); assay: FP assay (in vitro): inhibition of binding between Nrf2 and Keap1 by fluorescence polarization; settings: 20 nM GST-fused human Keap1, 10 nM FITC-labeled Nrf2 peptide, 2 hr at room temperature
Sequence of GST-fused human Keap1 (amino acid residues: 325-642) protein (Q14145 325-624 limits assumed): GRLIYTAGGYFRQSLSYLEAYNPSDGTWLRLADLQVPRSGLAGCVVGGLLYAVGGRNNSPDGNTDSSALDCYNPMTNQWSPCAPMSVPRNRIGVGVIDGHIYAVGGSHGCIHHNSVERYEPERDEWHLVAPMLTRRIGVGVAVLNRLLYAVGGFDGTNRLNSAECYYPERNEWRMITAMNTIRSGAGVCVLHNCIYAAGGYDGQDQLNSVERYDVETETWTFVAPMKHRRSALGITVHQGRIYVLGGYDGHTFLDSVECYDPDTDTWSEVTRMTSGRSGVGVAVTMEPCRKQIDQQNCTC

Compound	IC50 [2] [nM]	fold induction at 0.4 µM [1]
Cc1c(C(CC(=O)O)c2cc(CN3Cc4nc(N)ccc4OC4(CC4)C3)c3sccc3c2)cnc2c1nnn2C (stereo not shown) [Example 71, 3-{7-[(7′-Amino-3′H-spiro[cyclopropane-1,2′-pyrido[2,3-f][1,4]oxazepin]-4′ (5′H)-yl)methyl]-1-benzothiophen-5-yl}-3-(3,7-dimethyl-3H-[1,2,3]triazolo[4,5-b]pyridin-6-yl)propanoic acid]	10 to 30	> 5
CC[C@H]1Cc2ccc(O)nc2CN(Cc2cc([C@@H](CC(=O)O)c3ccc4c(nnn4C)c3C)cc3ccsc23)C1 [Example 72, (3R)-3-(1,4-Dimethyl-1H-benzotriazol-5-yl)-3-(7-{[(6S)-6-ethyl-2-hydroxy-5,6,7,9-tetrahydro-8H-pyrido[2,3-c]azepin-8-yl]methyl}-1-benzothiophen-5-yl)propanoic acid]	30 to 300	> 5
CC[C@H]1Cc2ccc(O)nc2CN(Cc2cc([C@H](CC(=O)O)c3ccc4c(nnn4C)c3C)cc3ccsc23)C1 [Example 73, (3S)-3-(1,4-Dimethyl-1H-benzotriazol-5-yl)-3-(7-{[(6S)-6-ethyl-2-hydroxy-5,6,7,9-tetrahydro-8H-pyrido[2,3-c]azepin-8-yl]methyl}-1-benzothiophen-5-yl)propanoic acid]	10 to 30	> 5
CC[C@@H]1CN(Cc2cc(C(CC(=O)O)c3ccc4c(nnn4C)c3C)cc3ccsc23)Cc2nc(F)c(O)cc2O1 (stereo partly drawn) [Example 74, 3-(1,4-Dimethyl-1H-benzotriazol-5-yl)-3-(7-{[(2R)-2-ethyl-7-fluoro-8-hydroxy-2,3-dihydropyrido[2,3-f][1,4]oxazepin-4(5H)-yl]methyl}-1-benzothiophen-5-yl)propanoic acid]	10 to 30	> 5
CC[C@H]1Cc2cccnc2CN(Cc2cc([C@@H](CC(=O)O)c3cnc4c(nnn4C)c3C)cc3ccsc23)C1 [Example 75, (3R)-3-(3,7-Dimethyl-3H-[1,2,3]triazolo[4,5-b]pyridin-6-yl)-3-(7-{[(6S)-6-ethyl-5,6,7,9-tetrahydro-8H-pyrido[2,3-c]azepin-8-yl]methyl}-1-benzothiophen-5-yl)propanoic acid]	10 to 30	> 5
CC[C@H]1Cc2cccnc2CN(Cc2cc([C@H](CC(=O)O)c3cnc4c(nnn4C)c3C)cc3ccsc23)C1 [Example 76, (3S)-3-(3,7-Dimethyl-3H-[1,2,3]triazolo[4,5-b]pyridin-6-yl)-3-(7-{[(6S)-6-ethyl-5,6,7,9-tetrahydro-8H-pyrido[2,3-c]azepin-8-yl]methyl}-1-benzothiophen-5-yl)propanoic acid]	10 to 30	> 5
Cc1c([C@@H](CC(=O)O)c2cc(CN3Cc4cnc(O)cc4OC4(CC4)C3)c3sccc3c2)ccc2c1nnn2C [Example 79, (3S)-3-(1,4-Dimethyl-1H-benzotriazol-5-yl)-3-{7-[(8′-hydroxy-3′H-spiro[cyclopropane-1,2′-pyrido[3,4-f][1,4]oxazepin]-4′ (5′H)-yl)methyl]-1-benzothiophen-5-yl}propanoic acid]	10 to 30	3 to 5
CC[C@H]1Cc2ccc(O)nc2CN(Cc2cc([C@@H](CC(=O)O)c3cnc4c(nnn4C)c3C)cc3ccsc23)C1 [Example 80, (3R)-3-(3,7-Dimethyl-3H-[1,2,3]triazolo[4,5-b]pyridin-6-yl)-3-(7-{[(6S)-6-ethyl-2-hydroxy-5,6,7,9-tetrahydro-8H-pyrido[2,3-c]azepin-8-yl]methyl}-1-benzothiophen-5-yl)propanoic acid]	10 to 30	> 5
CC[C@H]1Cc2ccc(O)nc2CN(Cc2cc([C@H](CC(=O)O)c3cnc4c(nnn4C)c3C)cc3ccsc23)C1 [Example 81, (3S)-3-(3,7-Dimethyl-3H-[1,2,3]triazolo[4,5-b]pyridin-6-yl)-3-(7-{[(6S)-6-ethyl-2-hydroxy-5,6,7,9-tetrahydro-8H-pyrido[2,3-c]azepin-8-yl]methyl}-1-benzothiophen-5-yl)propanoic acid]	10 to 30	> 5
Cc1c([C@@H](CC(=O)O)c2cc(CN3Cc4c(ccnc4O)OC4(CC4)C3)c3sccc3c2)ccc2c1nnn2C [Example 82, (3S)-3-(1,4-Dimethyl-1H-benzotriazol-5-yl)-3-{7-[(6′-hydroxy-3′H-spiro[cyclopropane-1,2′-pyrido[3,4-f][1,4]oxazepin]-4′(5′H)-yl)methyl]-1-benzothiophen-5-yl}propanoic acid]	10 to 30	3 to 5
CC[C@H]1Cc2ccc(O)nc2CN(Cc2cc([C@@H](CC(=O)O)c3cc(C)c4c(nnn4C)c3C)cc3ccsc23)C1 [Example 87, (3R)-3-(7-{[(6S)-6-Ethyl-2-hydroxy-5,6,7,9-tetrahydro-8H-pyrido[2,3-c]azepin-8-yl]methyl}-1-benzothiophen-5-yl)-3-(1,4,7-trimethyl-1H-benzotriazol-5-yl)propanoic acid]	≤ 10	> 5
CC[C@@H]1CN(Cc2cc(C(CC(=O)O)c3ccc4c(nnn4CC)c3C)cc3ccsc23)Cc2nc(C)ccc2O1 (stereo partly drawn) [Example 92, 3-(1-Ethyl-4-methyl-1H-benzotriazol-5-yl)-3-(7-{[(2R)-2-ethyl-7-methyl-2,3-dihydropyrido[2,3-f][1,4]oxazepin-4(5H)-yl]methyl}-1-benzothiophen-5-yl)propanoic acid]	30 to 300	> 5
CC[C@@H]1CN(Cc2cc(C(CC(=O)O)c3ccc4c(nnn4C)c3C)cc3ccsc23)Cc2nc(C(F)(F)F)ccc2O1 (stereo partly drawn) [Example 93, 3-(1,4-Dimethyl-1H-benzotriazol-5-yl)-3-(7-{[(2R)-2-ethyl-7-(trifluoromethyl)-2,3-dihydropyrido[2,3-f][1,4]oxazepin-4(5H)-yl]methyl}-1-benzothiophen-5-yl)propanoic acid]	≤ 10	> 5

Now from value to compound, other results behind:

IC50 [2] [nM]	Compound	fold induction at 0.4 µM [1]
≤ 10	CC[C@H]1Cc2cccnc2CN(Cc2cc([C@H](CC(=O)O)c3ccc4c(nnn4C)c3C)cc3ccsc23)C1 [Example 70, (3S)-3-(1,4-Dimethyl-1H-benzotriazol-5-yl)-3-(7-{[(6S)-6-ethyl-5,6,7,9-tetrahydro-8H-pyrido[2,3-c]azepin-8-yl]methyl}-1-benzothiophen-5-yl)propanoic acid]	> 5
≤ 10	CC[C@@H]1CN(Cc2cc([C@@H](CC(=O)O)c3ccc4c(nnn4C)c3C)cc3ccsc23)Cc2nc(NC)ccc2O1 [Example 77, (3R)-3-(1,4-Dimethyl-1H-benzotriazol-5-yl)-3-(7-{[(2R)-2-ethyl-7-(methylamino)-2,3-dihydropyrido[2,3-f][1,4]oxazepin-4(5H)-yl]methyl}-1-benzothiophen-5-yl)propanoic acid]	> 5
≤ 10	CC[C@@H]1CN(Cc2cc([C@H](CC(=O)O)c3ccc4c(nnn4C)c3C)cc3ccsc23)Cc2nc(NC)ccc2O1 [Example 78, (3S)-3-(1,4-Dimethyl-1H-benzotriazol-5-yl)-3-(7-{[(2R)-2-ethyl-7-(methylamino)-2,3-dihydropyrido[2,3-f][1,4]oxazepin-4(5H)-yl]methyl}-1-benzothiophen-5-yl)propanoic acid]	3 to 5
≤ 10	CC[C@H]1Cc2ccc(N)nc2CN(Cc2cc([C@@H](CC(=O)O)c3ccc4c(nnn4C)c3C)cc3ccsc23)C1 [Example 83, (3R)-3-(7-{[(6S)-2-Amino-6-ethyl-5,6,7,9-tetrahydro-8H-pyrido[2,3-c]azepin-8-yl]methyl}-1-benzothiophen-5-yl)-3-(1,4-dimethyl-1H-benzotriazol-5-yl)propanoic acid]	> 5
≤ 10	CC[C@H]1Cc2ccc(O)nc2CN(Cc2cc([C@H](CC(=O)O)c3ccc4c(nnn4C)c3Cl)cc3ccsc23)C1 [Example 84, (3S)-3-(4-Chloro-1-methyl-1H-benzotriazol-5-yl)-3-(7-{[(6S)-6-ethyl-2-hydroxy-5,6,7,9-tetrahydro-8H-pyrido[2,3-c]azepin-8-yl]methyl}-1-benzothiophen-5-yl)propanoic acid]	> 5
≤ 10	CC[C@H]1Cc2ccc(O)nc2CN(Cc2cc([C@H](CC(=O)O)c3cc(Cl)c4c(nnn4C)c3C)cc3ccsc23)C1 [Example 85, (3S)-3-(7-Chloro-1,4-dimethyl-1H-benzotriazol-5-yl)-3-(7-{[(6S)-6-ethyl-2-hydroxy-5,6,7,9-tetrahydro-8H-pyrido[2,3-c]azepin-8-yl]methyl}-1-benzothiophen-5-yl)propanoic acid]	> 5
≤ 10	CC[C@H]1Cc2ccc(O)nc2CN(Cc2cc([C@H](CC(=O)O)c3cc(C)c4c(nnn4C)c3C)cc3ccsc23)C1 [Example 86, (3S)-3-(7-{[(6S)-6-Ethyl-2-hydroxy-5,6,7,9-tetrahydro-8H-pyrido[2,3-c]azepin-8-yl]methyl}-1-benzothiophen-5-yl)-3-(1,4,7-trimethyl-1H-benzotriazol-5-yl)propanoic acid]	> 5
